A value given as a limit tells only on which side of the number the result lay.

For ten molecules, Kd and IC50 results are on record in US20250034173A1, “PYRIDO[4,3-D]PYRIMIDINE COMPOUNDS” (PFIZER INC., priority 2023, published 2025).

The target in assay [1] is KRAS Wild Type (Homo sapiens (Human), UniProt P01116). As to the kind of experiment: SPR binding affinity and kinetics, GTPγS-loaded KRAS Wild Type. The conditions noted are these: GTPγS loaded protein, geomean. The text has this: (§1) No additional regeneration was used.
Chain of KRAS Wild Type (P01116 other isoform, or with tags, fused parts or gaps): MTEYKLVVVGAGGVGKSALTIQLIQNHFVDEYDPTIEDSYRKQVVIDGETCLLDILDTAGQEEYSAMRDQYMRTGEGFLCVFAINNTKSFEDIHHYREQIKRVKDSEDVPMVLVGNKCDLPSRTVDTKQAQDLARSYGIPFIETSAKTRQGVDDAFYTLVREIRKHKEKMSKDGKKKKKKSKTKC
(§2) Compound dissociation was monitored for at least 3600 seconds. […] No additional regeneration was used.
(§3) The adequateness of the fit was judged by c2 values and the randomness of residue distribution.
A general note: Surface plasmon resonance follows binding to a sensor surface in real time, without labels.

In assay [2] the target is KRAS G12D (Homo sapiens (Human), UniProt P01116, G12D). As to the kind of experiment: SPR binding affinity and kinetics, GTPγS-loaded KRAS G12D. As to conditions: GTPγS loaded protein, geomean.
Chain of KRAS G12D (P01116 other isoform, or with tags, fused parts or gaps G12D): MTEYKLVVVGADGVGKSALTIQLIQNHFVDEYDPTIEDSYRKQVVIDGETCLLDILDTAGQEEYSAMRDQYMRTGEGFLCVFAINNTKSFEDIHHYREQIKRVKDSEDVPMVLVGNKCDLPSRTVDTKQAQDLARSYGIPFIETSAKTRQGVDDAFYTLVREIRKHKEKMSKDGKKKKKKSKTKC
Excerpt: as §1, §2, §3

Assay [3] concerns the target KRAS G12C (Homo sapiens (Human), UniProt P01116, G12C). Briefly: SPR binding affinity and kinetics, GTPγS-loaded KRAS G12C. As to conditions: GTPγS loaded protein, geomean.
Excerpt: as §1, §2, §3

The target of assay [4] is KRAS G12V (Homo sapiens (Human), UniProt P01116, G12V). Briefly: SPR binding affinity and kinetics, GTPγS-loaded KRAS G12V. As to conditions: GTPγS loaded protein, geomean.
Chain of KRAS G12V (P01116 other isoform, or with tags, fused parts or gaps G12V): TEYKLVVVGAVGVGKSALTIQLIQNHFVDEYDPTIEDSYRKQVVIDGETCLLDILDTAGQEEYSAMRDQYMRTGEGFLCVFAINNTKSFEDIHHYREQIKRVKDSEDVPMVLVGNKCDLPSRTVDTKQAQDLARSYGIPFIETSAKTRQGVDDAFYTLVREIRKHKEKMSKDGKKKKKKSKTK
Excerpt: as §1, §2, §3

Assay [5] concerns H358 (non-small cell lung cancer cell line). Briefly: KRAS Cell Titer Glo (CTG) cell proliferation assay, H358. The assay is classed as cell-based. The conditions noted are these: Homo sapiens, NCI-H358, 168 h; H358 cells, 7-day CTG, geomean IC50. The source says:
(§4) The CellTiter-Glo® (CTG) Luminescent Cell Viability Assay is a homogeneous method of determining the number of viable cells in culture based on quantitation of the ATP present, an indicator of metabolically active cells. The CTG is designed for use with multi-well formats, making it ideal for automated high-throughput screening (HTS), cell proliferation and cytotoxicity assays. The homogeneous assay procedure involves adding the single reagent (CellTiter-Glo® Reagent) directly to cells cultured in serum-supplemented medium. Cell washing, removal of medium and multiple pipetting steps are not required. The system detects as few as 15 cells per well in a 384-well format in 10 minutes after adding reagent and mixing.
(§5) Cells are grown in humidified 5% CO2 incubator at 37° C. using the culture conditions outlined below. All cell culture media reagents were purchased from Gibco. Cell lines purchased from ATCC: H358 (non-small cell lung cancer cell line), SW620 (colorectal cancer cell line), PANC08.13 (RPM11640+10% FBS+10 units/mL Insulin, pancreatic cancer cell line). Test and control compounds are dispensed as nanoliter drops according to desired final concentrations in 0.1% DMSO using Echo Acoustic Dispenser onto 384 assay plates (Corning, Cat #3764) prior to cell seeding. Cells were seeded in 40 μL volume per well at the following cell densities (cells per well): H358 (300), SW620 (750), PANC 08.13 (600). Cells are incubated in the presence of compound for 7-days. Viability is determined on Day 7 using CellTiter-Glo® (CTG) Luminescent Cell Viability Assay (Promega). CTG is added to a […] per well and incubated at room temperature for 15 minutes before luminescence is captured using an EnVision Reader with LUM384 US protocol. Data is analyzed using Activity Base to determine compound response and will be represented either as a percent effect (PCTEFF) or percent control (PCTOCTL) as described: Zero percent effect control (ZPE) (Negative control)—100% DMSO. Hundred percent effect (HPE) (Positive control)—1 uM Trametinib (GSK1120212, MEK inhibitor) (4 nl of 10 mM and 36 nl of DMSO per well). The following equations/nomenclature are used (% Effect; PCTEFF) and (% of Control; PCTOCTL): PCTEFF: 100*(Raw_Data_Value−HPE/ZPE−HPE), PCTOCTL: 100*Raw_Data_Value/User_Defined_Array), where the User_Defined_Array is either summarized HPE or ZPE.
(§6) Cells with “nd” indicate compound not tested in that particular assay at time of writing. It is to be understood that the geomean IC50 data may change slightly over time with increasing repeat data (ie: increasing n #).
Background: Cellular ATP, detected with luciferase, serves as a proxy for viable cell number.

Assay [6] concerns SW620 (colorectal cancer cell line). As to the kind of experiment: KRAS Cell Titer Glo (CTG) cell proliferation assay, SW620. It is filed as cell-based. The conditions noted are these: Homo sapiens, SW-620, 168 h; SW620 cells, 7-day CTG, geomean IC50.
Excerpt: as §4, §5, §6

Assay [7] deals with PANC08.13 (pancreatic cancer cell line). Briefly: KRAS Cell Titer Glo (CTG) cell proliferation assay, PANC08.13. It is filed as cell-based. The conditions noted are these: Homo sapiens, PANC-08-13, 168 h; PANC08.13 cells, 7-day CTG, geomean IC50.
Excerpt: as §4, §5, §6

Chain of KRAS G12C (P01116 other isoform, or with tags, fused parts or gaps G12C): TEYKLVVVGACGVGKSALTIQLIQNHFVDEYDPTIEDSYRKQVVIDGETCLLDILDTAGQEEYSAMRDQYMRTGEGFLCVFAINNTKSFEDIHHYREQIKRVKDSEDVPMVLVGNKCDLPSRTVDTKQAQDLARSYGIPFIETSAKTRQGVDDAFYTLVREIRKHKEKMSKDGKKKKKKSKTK

As to `C=C1CN2CC[C@@H](O)[C@@]2(COc2nc3c4c(nc(-c5c(C6CC6)c(Cl)cc6[nH]ncc56)c(F)c4n2)OC[C@@H]2COCCCN32)C1` (relative stereo) [Example 45, (1R,7aS*)-7a-({[(8aS)-5-(6-chloro-5-cyclopropyl-1H-indazol-4-yl)-4-fluoro-8a,9,12,13-tetrahydro-8H,11H-7,10-dioxa-1,3,6,13a-tetraazanaphtho[1,8-ab]heptalen-2-yl]oxy}methyl)-6-methylidenehexahydro-1H-pyrrolizin-1-ol], the Kd (as a rule, the free concentration of one partner at which half of the binding sites on the other are occupied at equilibrium, for simple one-to-one binding) in assay [1] stood at 0.003 µM; in assay [2], 0.001 µM; in assay [3], 0.003 µM; in assay [4], 0.002 µM. Moreover, the IC50 (in general, the midpoint of a concentration-inhibition curve) in assay [5] turned out to be 0.019 µM; in assay [6], 0.032 µM; in assay [7], 0.02 µM.
Consider `COC/C=C1/CN2CCC[C@@]2(COc2nc3c4c(nc(-c5c(C6CC6)c(Cl)cc6[nH]ncc56)c(F)c4n2)OC[C@@H]2COCCCN32)C1` (relative stereo) [Example 48, (8aS)-5-(6-chloro-5-cyclopropyl-1H-indazol-4-yl)-4-fluoro-2-{[(2E,7aS*)-2-(2-methoxyethylidene)tetrahydro-1H-pyrrolizin-7a(5H)-yl]methoxy}-8a,9,12,13-tetrahydro-8H,11H-7,10-dioxa-1,3,6,13a-tetraazanaphtho[1,8-ab]heptalene], for which the Kd in assay [1] is 0.065 µM; in assay [2], 0.035 µM; in assay [3] it was 0.072 µM; in assay [4], 0.041 µM.
For the molecule `COC/C=C1/CN2CCC[C@@]2(COc2nc3c4c(nc(-c5c(C6CC6)c(Cl)cc6[nH]ncc56)c(F)c4n2)OC[C@@H]2COCCCN32)C1` (relative stereo) [Example 49, (8aS)-5-(6-chloro-5-cyclopropyl-1H-indazol-4-yl)-4-fluoro-2-{[(2E,7aR*)-2-(2-methoxyethylidene)tetrahydro-1H-pyrrolizin-7a(5H)-yl]methoxy}-8a,9,12,13-tetrahydro-8H,11H-7,10-dioxa-1,3,6,13a-tetraazanaphtho[1,8-ab]heptalene], the equilibrium dissociation constant (Kd) is 0.063 µM in assay [1], 0.041 µM in assay [2], 0.073 µM in assay [3] and 0.058 µM in assay [4].
On the same counts, the results for `COC/C=C1\CN2CCC[C@@]2(COc2nc3c4c(nc(-c5c6c(cc7[nH]ncc57)CCC[C@H]6OC)c(F)c4n2)OC[C@@H]2COCCCN32)C1` (relative stereo) [Example 59, (8aS)-4-fluoro-2-{[(2Z,7aS)-2-(2-methoxyethylidenetetrahydro-1H-pyrrolizin-7a(5H)-yl]methoxy}-5-[(5R*)-5-methoxy-5,6,7,8-tetrahydro-1H-benzo[f]indazol-4-yl]-8a,9,12,13-tetrahydro-8H,11H-7,10-dioxa-1,3,6,13a-tetraazanaphtho[1,8-ab]heptalene] are over 1 µM, over 1 µM, over 1 µM and over 1 µM.
As for `C=C1CN2CCC[C@@]2(COc2nc3c4c(nc(-c5c([C@@H]6C[C@@H]6C)c(Cl)cc6[nH]ncc56)c(F)c4n2)OC[C@@H]2COCCCN32)C1` (single isomer, unassigned) [Example 30, (8aS)-5-{6-chloro-5-[(1R*,2S*)-2-methylcyclopropyl]-1H-indazol-4-yl}-4-fluoro-2-{[(7aS)-2-methylidenetetrahydro-1H-pyrrolizin-7a(5H)-yl]methoxy}-8a,9,12,13-tetrahydro-8H,11H-7,10-dioxa-1,3,6,13a-tetraazanaphtho[1,8-ab]heptalene], the Kd in assay [1] was 0.004 µM; in assay [2] it was 0.002 µM; in assay [3], 0.003 µM; in assay [4], 0.004 µM. The 50% inhibitory concentration (IC50) in assay [5] was found to be 0.051 µM; in assay [6], 0.102 µM; in assay [7] it was 0.004 µM.
Consider `C=C1CN2CCC[C@@]2(COc2nc3c4c(nc(-c5c([C@H]6C[C@H]6C)c(Cl)cc6[nH]ncc56)c(F)c4n2)OC[C@@H]2COCCCN32)C1` (single isomer, unassigned) [Example 31, (8aS)-5-{6-chloro-5-[(1S*,2R*)-2-methylcyclopropyl]-1H-indazol-4-yl}-4-fluoro-2-{[(7aS)-2-methylidenetetrahydro-1H-pyrrolizin-7a(5H)-yl]methoxy}-8a,9,12,13-tetrahydro-8H,11H-7,10-dioxa-1,3,6,13a-tetraazanaphtho[1,8-ab]heptalene], for which the Kd in assay [1] was found to be 0.01 µM; in assay [2], 0.006 µM; in assay [3], 0.007 µM; in assay [4], 0.005 µM. For the same molecule, the IC50 in assay [5] worked out at 0.054 µM; in assay [6] it was 0.115 µM; in assay [7], 0.011 µM.
In the case of `C=C1CN2CCC[C@@]2(COc2nc3c4c(nc(-c5c([C@@H]6C[C@H]6C)c(Cl)cc6[nH]ncc56)c(F)c4n2)OC[C@@H]2COCCCN32)C1` (single isomer, unassigned) [Example 51, (8aS)-5-{6-chloro-5-[(1R*,2R*)-2-methylcyclopropyl]-1H-indazol-4-yl}-4-fluoro-2-{[(7aS)-2-methylidenetetrahydro-1H-pyrrolizin-7a(5H)-yl]methoxy}-8a,9,12,13-tetrahydro-8H,11H-7,10-dioxa-1,3,6,13a-tetraazanaphtho[1,8-ab]heptalene], the Kd in assay [1] was 0.012 µM; in assay [2] it was 0.006 µM; in assay [3], 0.008 µM; in assay [4], 0.007 µM. Further, the IC50 in assay [5] was 0.027 µM; in assay [6], 0.04 µM; in assay [7], 0.01 µM.
For `C=C1CN2CCC[C@@]2(COc2nc3c4c(nc(-c5c6c(cc7[nH]ncc57)CCC[C@H]6OC)c(F)c4n2)OC[C@@H]2COCCCN32)C1` (single isomer, unassigned) [Example 56, (8aS)-4-fluoro-5-[(5R*)-5-methoxy-5,6,7,8-tetrahydro-1H-benzo[f]indazol-4-yl]-2-{[(7aS)-2-methylidenetetrahydro-1H-pyrrolizin-7a(5H)-yl]methoxy}-8a,9,12,13-tetrahydro-8H,11H-7,10-dioxa-1,3,6,13a-tetraazanaphtho[1,8-ab]heptalene], the Kd worked out at 0.023 µM in assay [1], 0.034 µM in assay [2], 0.01 µM in assay [3] and 0.023 µM in assay [4]. The IC50 is 0.172 µM in assay [5], 0.063 µM in assay [6] and 0.135 µM in assay [7].
On to `C=C1CN2CCC[C@@]2(COc2nc3c4c(nc(-c5c6c(cc7[nH]ncc57)CCC[C@H]6OC)c(F)c4n2)OC[C@@H]2COCCCN32)C1` (single isomer, unassigned) [Example 57, (8aS)-4-fluoro-5-[(5R*)-5-methoxy-5,6,7,8-tetrahydro-1H-benzo[f]indazol-4-yl]-2-{[(7aS)-2-methylidenetetrahydro-1H-pyrrolizin-7a(5H)-yl]methoxy}-8a,9,12,13-tetrahydro-8H,11H-7,10-dioxa-1,3,6,13a-tetraazanaphtho[1,8-ab]heptalene], for which the Kd in assay [1], in assay [2], in assay [3] and in assay [4] was over 1 µM in each case.
`C=C1CN2CCC[C@@]2(COc2nc3c4c(nc(-c5c(C)c(Cl)cc6[nH]ncc56)c(F)c4n2)OC[C@@H]2COCCCN32)C1` [Example 7, (8aS)-5-(6-chloro-5-methyl-1H-indazol-4-yl)-4-fluoro-2-{[(7aS)-2-methylidenetetrahydro-1H-pyrrolizin-7a(5H)-yl]methoxy}-8a,9,12,13-tetrahydro-8H,11H-7,10-dioxa-1,3,6,13a-tetraazanaphtho[1,8-ab]heptalene]: the Kd in assay [1] was 0.034 µM; in assay [2] it was 0.028 µM; in assay [3] it was 0.015 µM; in assay [4], 0.024 µM. Besides, the values for the IC50 in assay [5], in assay [6] and in assay [7] were 0.173 µM, 0.139 µM and 0.022 µM, respectively.
